PubChem BioAssay (NCI)
“And” between values parts separate entries of the source, which are not always exact repeats. Identical values can stand only once.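 These data come from cells grown in 96-well plates and exposed to compound for 48 hours at five concentrations. GI50 = concentration required for 50% inhibition of growth. TGI: concentration producing complete growth inhibition.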

Key:
Assay in all cases: NCI anticancer screen, dose series, 48 h
TK-10 renal = tested on: TK-10 renal
KM12 colon = tested on: KM12 colon
CCRF-CEM leukemia = tested on: CCRF-CEM leukemia
UACC-257 melanoma = tested on: UACC-257 melanoma
DU-145 prostate = tested on: DU-145 prostate
A549 NSCLC = tested on: A549 NSCLC
OVCAR-8 ovarian = tested on: OVCAR-8 ovarian
SK-OV-3 ovarian = tested on: SK-OV-3 ovarian
NCI-H460 lung = tested on: NCI-H460 lung
MALME-3M melanoma = tested on: MALME-3M melanoma

SMILES	TGI (TK-10 renal) [µM]	TGI (KM12 colon) [µM]	TGI (CCRF-CEM leukemia) [µM]	TGI (UACC-257 melanoma) [µM]	TGI (DU-145 prostate) [µM]	TGI (A549 NSCLC) [µM]	TGI (OVCAR-8 ovarian)	TGI (SK-OV-3 ovarian) [µM]	TGI (NCI-H460 lung) [µM]	TGI (MALME-3M melanoma) [µM]	GI50 (TK-10 renal) [nM]	GI50 (UACC-257 melanoma) [nM]	GI50 (DU-145 prostate) [nM]	GI50 (A549 NSCLC) [nM]	GI50 (KM12 colon) [nM]	GI50 (CCRF-CEM leukemia) [nM]	GI50 (SK-OV-3 ovarian) [nM]	GI50 (NCI-H460 lung) [nM]	GI50 (OVCAR-8 ovarian) [nM]	GI50 (MALME-3M melanoma) [nM]
S=C(S)NCNC(=S)S.[Zn+2]	> 100	> 100	> 100	> 100	> 100	> 100	> 100 µM	> 100	> 100	> 100	–	–	–	–	–	–	–	–	–	–
CCOC(=O)C12OC(CCC1=O)C(C(=O)OC)=C2C(=O)OC (centres undefined)	> 10	> 10	> 10	> 10	> 10	> 10	> 10 µM	> 10	> 10	> 10	–	–	–	–	–	–	–	–	–	–
Cn1c(=O)n(C2(C)C[Se]C2)c2ccccc21	> 100	> 100	> 100	> 100	–	> 100	> 100 µM	> 100	> 100	–	–	–	–	–	–	–	–	–	–	–
O=c1c(/C=C/c2c(O)ccc3ccccc23)nnc2sc(-c3cccc(Br)c3)nn12	–	63.6	18.6	> 100	45.3	> 100	23.6 µM	> 100	> 100	> 100	–	–	–	–	–	–	–	–	–	–
Fc1cc(-c2cc(-c3ccccc3)no2)c(Cl)cc1Cl	> 51.7	> 58.4	> 49.6	> 71.6	> 48.6	> 41.6	> 40.8 µM	> 50.3	> 43.1	> 35.2	–	–	–	–	–	–	–	–	–	–
O=C(Cn1c[n+](CC(=O)c2ccc(-c3ccccc3)cc2)c2ccccc21)Nc1cccc2cccnc12	3.74	–	–	2.78	5.71	13	–	–	–	–	2010	1280	2220	3020	–	–	–	–	–	–
N#Cc1c2ccccc2cn1-c1ccc(F)cc1	> 100	97.4	> 100	83.8	–	> 100	–	–	> 100	86.1	–	–	–	–	–	–	–	–	–	–
COC(=O)c1ccccc1/C=C1\Cc2ccc(C)c(C)c2C1=O	> 100	> 100	> 100	> 100	> 100	> 100	> 100 µM	–	> 100	> 100	–	–	–	–	–	–	–	–	–	–
NNC(=O)c1n[nH]nc1C(=O)NN	> 100	> 100	> 100	> 100	> 100	> 100	> 100 µM	–	> 100	33.1	–	–	–	–	–	–	–	–	–	–
CC(C)C(=O)OCC1OC(n2c(Br)nc3c(=O)[nH]c(N)nc32)C(OC(=O)C(C)C)C1OC(=O)C(C)C (centres undefined)	–	–	–	> 100	> 100	> 100	> 100 µM	> 100	58	> 100	–	–	–	–	–	–	–	–	–	–
COc1ccc(S(=O)(=O)c2nnc(S(=O)(=O)Cc3ccccc3)s2)cc1	39.6	> 100	–	31.4	33	49.3	49.4 µM	44.6	38.1	–	–	–	–	–	–	–	–	–	–	–
Cc1ccc(-n2c(N)c(C#N)c3[nH]nc(N)c3c2=O)cc1	> 100	> 100	> 100	> 100	> 100	–	> 100 µM	> 100	> 100	–	–	–	–	–	–	–	–	–	–	–
CC(=O)Oc1ccc2c(C)cc(=O)oc2c1OC(C)=O	84.9	> 100	83.7	> 100	> 100	> 100	> 100 µM	> 100	–	99.6	–	–	–	–	–	–	–	–	–	–
CC#CCOC(=O)c1ccccc1OC(C)=O	> 100	> 100	> 100	> 100	> 100	–	> 100 µM	> 100	> 100	–	–	–	–	–	–	–	–	–	–	–
O=C(Nc1nc(C23CC4CC(CC(C4)C2)C3)cs1)c1cc2ccc(O)cc2oc1=O	> 100	29.9	68.1	44.1	> 100	38.3	90.9 µM	–	52.7	34.5	–	–	–	–	–	–	–	–	–	–
COc1ccc(-[n+]2nc(S(=O)(=O)O)c(/C=C/c3ccc(N(C)C)cc3)cc2C#N)cc1	> 100	> 100	> 100	> 100	> 100	> 100	> 100 µM	> 100	–	–	–	–	–	–	–	–	–	–	–	–
CCCCCCOC(=O)/C=C/[C@]1(CO)C/C(=C/CC(C(C)C)C(C)C)C(=O)O1	14	33.3	–	31.6	37	18.4	31.6 µM	37.7	20.5	25.7	–	–	–	–	–	–	–	–	–	–
C=C(C)[C@@H]1CC[C@]2(C(=O)NC3CCCCC3)CC[C@]3(C)[C@H](CC[C@@H]4[C@@]5(C)CCCNC(C)(C)[C@@H]5CC[C@]43C)[C@@H]12	3.6	3.64	6.68	3.31	3.63	–	–	3.26	3.3	–	1870	1720	1910	–	1920	2300	1770	1780	–	–
O=c1cc(-c2cccc3ccccc23)[nH]c2ncccc12	–	–	> 100	–	> 100	> 100	0.889 µM and 0.453 µM	–	> 100	0.0462	–	–	–	21.6	–	20.1	14.7	39.2	33.8	–
Nc1ncnc2c1ncn2[C@@H]1C[C@@H]1CO	–	> 100	> 100	> 100	–	> 100	> 100 µM	–	> 100	> 100	–	–	–	–	–	–	–	–	–	–
CCOC(=O)NC(Nc1ccc(S(=O)(=O)Nc2nc(C)cc(C)n2)cc1)(C(=O)OCC)C(F)(F)F (centres undefined)	> 100	> 100	> 100	–	> 100	> 100	> 100 µM	> 100	> 100	> 100	–	–	–	–	–	–	–	–	–	–
O=C(O)CCC(NC(=O)c1ccc(Nc2nc3cc(C(F)(F)F)ccc3nc2-c2ccccc2)cc1)C(=O)O (centres undefined)	–	> 100	> 100	> 100	–	> 100	> 100 µM	> 100	> 100	> 100	–	–	–	–	–	–	–	–	–	–
CC1(C)N=C(N)N=C(N)N1c1ccc(CCc2ccccc2)cc1	–	> 43.1	> 100	32	–	> 100	> 100 µM	> 100	> 100	> 80.2	–	–	–	–	–	–	–	–	–	–

SMILES	TGI (TK-10 renal) [µM]	TGI (KM12 colon) [µM]	TGI (CCRF-CEM leukemia) [µM]	TGI (UACC-257 melanoma) [µM]	TGI (DU-145 prostate) [µM]	TGI (A549 NSCLC) [µM]	TGI (OVCAR-8 ovarian)	TGI (SK-OV-3 ovarian) [µM]	TGI (NCI-H460 lung) [µM]	TGI (MALME-3M melanoma) [µM]	GI50 (TK-10 renal) [nM]	GI50 (UACC-257 melanoma) [nM]	GI50 (DU-145 prostate) [nM]	GI50 (A549 NSCLC) [nM]	GI50 (KM12 colon) [nM]	GI50 (CCRF-CEM leukemia) [nM]	GI50 (SK-OV-3 ovarian) [nM]	GI50 (NCI-H460 lung) [nM]	GI50 (OVCAR-8 ovarian) [nM]	GI50 (MALME-3M melanoma) [nM]
Nc1nc(N)c2c3c(cnc2n1)CC(c1ccccc1)CC3 (centres undefined)	97.9	> 100	–	> 100	> 100	> 100	26.6 µM	63	> 100	> 100	–	–	–	–	–	–	–	–	–	–
COc1ccc2cc(/C=N/NC(=O)Nc3ccccc3)ccc2c1	> 100	> 100	> 100	> 100	> 100	–	> 100 µM	> 100	> 100	> 100	–	–	–	–	–	–	–	–	–	–
COc1cc2c(C)cc(O)cc2c2cc(O)c(C)cc12	23.8	20.2	18.2	22.8	20.9	23.8	40.2 µM	23.8	9.73	–	–	–	–	–	–	–	–	–	–	–
N#Cc1c(N)nc2n[nH]c(N)c2c1-c1ccc(Cl)cc1	–	> 100	> 100	> 100	> 71.8	> 72.9	> 50.8 µM	7.33	> 96.7	8.69	–	–	–	–	–	–	–	–	–	–
NCc1ccccc1-c1c2nc(c(-c3ccccc3CN)c3ccc([nH]3)c(-c3ccccc3CN)c3nc(c(-c4ccccc4CN)c4ccc1[nH]4)C=C3)C=C2	63.1	50.7	27.1	47.7	–	46.9	> 100 µM	–	66.7	–	–	–	–	–	–	–	–	–	–	–
CC1CCC(C(C)C)C(OC(=O)NCn2cc(-c3ccccc3)nn2)C1 (centres undefined)	> 100	> 100	> 100	> 100	> 100	> 100	> 100 µM	–	> 100	> 100	–	–	–	–	–	–	–	–	–	–
CC1(CCOCc2ccccc2)NC(=O)NC1=O (centres undefined)	> 100	> 100	–	> 100	> 100	> 100	> 100 µM	–	> 100	> 100	–	–	–	–	–	–	–	–	–	–
CN(C)C1(N(C)C)Oc2c(c(=O)n(C)c(=O)n2C)C(c2ccccc2)C1(F)F (centres undefined)	> 100	> 100	> 100	> 100	> 100	> 100	–	> 100	> 100	–	–	–	–	–	–	–	–	–	–	–
COC(=O)/C=C(\C)CC(O)/C=C(\C)CCC=C(C)C (centres undefined)	> 100	> 100	94.1	> 100	–	> 100	> 100 µM	> 100	> 100	> 100	–	–	–	–	–	–	–	–	–	–
Cn1c(=O)c2c(nc(Cc3ccccc3)n2CC(=O)O)n(C)c1=O	> 100	> 100	> 100	> 100	> 100	> 100	> 100 µM	–	> 100	> 100	–	–	–	–	–	–	–	–	–	–
CCC(/C=C/C1OC(=O)C=CC1C)=C\C(C)C/C=C/C(C)=C/C(C)C(=O)C(C)C(O)C(C)C/C(C)=C/C(=O)O (centres undefined)	–	–	–	6.25	–	3.96	9.77 µM	14.3	–	6.29	–	0.294	–	0.0164	–	< 0.001	0.0954	–	0.00154	0.217
COC(=O)c1cc2ccc(N)nc2[nH]c1=O	> 100	> 100	–	> 100	–	> 100	> 100 µM	> 100	> 100	> 100	–	–	–	–	–	–	–	–	–	–
CC(OC(C)(C)C)[C@H](NC(=O)OCC(Cl)(Cl)Cl)C(=O)O (some centres undefined)	> 100	> 100	> 100	> 100	–	> 100	> 100 µM	> 100	> 100	> 100	–	–	–	–	–	–	–	–	–	–
O=c1cnn(C/C=C/CO)c(=O)[nH]1	> 100	> 100	> 100	> 100	> 100	> 100	> 100 µM	–	> 100	> 100	–	–	–	–	–	–	–	–	–	–
CN1CCN(C(=S)N2CCN(C)CC2)CC1	> 100	> 100	–	> 100	> 100	> 100	> 100 µM	> 100	> 21.8	> 100	–	–	–	–	–	–	–	–	–	–
CCCCNC(=S)Nc1nc(C(=O)NNC(=S)Nc2ccccc2)cs1	> 100	> 100	> 100	> 100	> 100	> 100	> 100 µM	> 100	> 100	–	–	–	–	–	–	–	–	–	–	–
N#Cc1c(N)n(-c2cccc(C(=O)O)c2)c(=O)c2cc([N+](=O)[O-])ccc12	> 100	> 100	–	> 100	> 100	> 100	> 100 µM	–	> 100	–	–	–	–	–	–	–	–	–	–	–
OC1C#CCSCC#C/C=C\1 (centres undefined)	> 100	–	98.4	> 100	> 100	–	77 µM	> 100	36.5	> 100	–	–	–	–	–	–	–	–	–	–
COc1ccc(P2(=S)OC(C)(C)C(C)(C)O2)cc1	> 100	> 100	> 100	> 100	> 100	> 100	> 100 µM	–	> 100	> 100	–	–	–	–	–	–	–	–	–	–
CC12CC(c3ccccc3O1)C(C(=O)Nc1ccc(Cl)cc1Cl)C(=O)N2 (centres undefined)	–	> 100	30.1	> 100	> 100	56.8	30.6 µM	> 100	> 100	89.8	–	–	–	–	–	–	–	–	–	–
Cn1ccc(C(=O)NCCN(CCNC(=O)c2ccn(C)c(=O)c2O)CCNC(=O)c2cccc(=O)n2O)c(O)c1=O	–	> 100	> 100	> 100	> 100	> 100	> 100 µM	> 100	> 100	> 100	–	–	–	–	–	–	–	–	–	–
O=[N+]([O-])c1ccc2c(c1)C1=C(CO2)Cc2ccccc2O1	57	39.3	> 100	33.5	> 100	> 100	> 100 µM	> 100	–	70.4	–	–	–	–	–	–	–	–	–	–
O=C1/C(=C/c2ccccc2S)N=C(c2ccccc2)N1c1nc2c(Cl)cc(Cl)cc2s1	> 100	88.1	13.7	> 100	> 100	54.3	73.3 µM	66	> 100	–	–	–	–	–	–	–	–	–	–	–
